Source: patent publication US10519099B2, “Cystobactamides” (priority 2014, dated 2019)
≈ marks a conversion by molar mass, not a printed value.

Assays:
[1] = test system: P. aeruginosa DSM-24600 (ESBL); assay: MIC microdilution, P. aeruginosa DSM-24600 (ESBL); type: cell-based, Pseudomonas aeruginosa
Description: (§1) Indicator strains used in susceptibility assays were either part of our strain collection or purchased from the German Collection of Microorgansims and Cell Cultures (DSMZ) or from the American Type Culture Collection (ATCC). E. coli strain WT and corresponding E. coli mutants were kindly provided by Prof. Dr. P. Heisig, Pharmaceutical Biology and Microbiology, University of Hamburg. E. coli strains JW0401-1 (WT) and Δtsx were obtained from the CGSC collection.
(§2) MIC values were determined in standardized microdilution assays. Overnight cultures were diluted in the appropriate growth medium to achieve an inoculum of 10^4-10^6 cfu/mL. Yeasts were grown in Myc medium (1% phytone peptone, 1% glucose, 50 mM HEPES, pH 7.0), S. pneumonia and Enterococcus spp. in tryptic soy broth (TSB: 1.7% peptone casein, 0.3% peptone soymeal, 0.25% glucose, 0.5% NaCl, 0.25% K2HPO4; pH 7.3); M. smegmatis in Middlebrook 7H9 medium supplemented with 10% Middlebrook ADC enrichment and 2 ml/I glycerol). All other listed bacteria were grown in Müller-Hinton broth (0.2% beef infusion solids, 1.75% casein hydrolysate, 0.15% starch, pH 7.4). Cystobactamides and reference drugs were added directly to the cultures in sterile 96-well plates as duplicates and serial dilutions were prepared. Microorganisms were grown on a microplate shaker (750 rpm, 30-37° C., 18-48 h), except S. pneumonia, which was grown at non-shaking conditions (37° C., 5% CO2, 18 h). Growth inhibition was assessed by visual inspection and the MIC was defined as the lowest concentration of compound that inhibited visible growth.

E. coli Δtsx = assay: MIC microdilution, E. coli Δtsx; type: cell-based, Escherichia coli; details: Gram-negative set
Description: as §1
as §2, with “Cystobactamides and reference drugs were added directly to the cultures in sterile 96-well plates as duplicates and serial dilutions were prepared. Microorganisms were grown on a microplate shaker (750 rpm, 30-37° C., 18-48 h), except S. pneumonia, which was grown at non-shaking conditions (37° C., 5% CO2, 18 h).” left out

[2] = test system: Serratia marcescens DSM-30121; assay: MIC microdilution, Serratia marcescens DSM-30121; type: cell-based; details: larger panel
Description: as §1, §2

E. coli JW0401-1 (WT) = assay: MIC microdilution, E. coli JW0401-1 (WT); type: cell-based, Escherichia coli; details: Gram-negative set
Description: as §1
as §2, with “Cystobactamides and reference drugs were added directly to the cultures in sterile 96-well plates as duplicates and serial dilutions were prepared. Microorganisms were grown on a microplate shaker (750 rpm, 30-37° C., 18-48 h), except S. pneumonia, which was grown at non-shaking conditions (37° C., 5% CO2, 18 h).” left out

[3] = test system: Enterococcus faecium DSM-20477; assay: MIC microdilution, Enterococcus faecium DSM-20477; type: cell-based; details: larger panel
Description: as §1, §2

[4] = test system: E. coli WT-III [marRΔ74bp]; assay: MIC microdilution, E. coli WT-III [marRΔ74bp]; type: cell-based, Escherichia coli
Description: as §1, §2

P. aeruginosa gyrase = target: T1, P. aeruginosa gyrase (Pseudomonas aeruginosa, UniProt P48372+Q9I7C2); assay: P. aeruginosa gyrase DNA supercoiling assay; type: biochemical; details: read-out: IC50 Pa gyrase (sc)
T1 construct: purchased Inspiralis, Norwich, UK
Description: (§3) To test the anti-gyrase activity of cystobactamides, commercial E. coli and P. aeruginosa gyrase supercoiling kits (Inspiralis, Norwich, UK) were used. For standard reactions 0.5 μg relaxed plasmid were mixed with 1 unit gyrase in 1× reaction buffer (see kit manual) and incubated for 30 min at 37° C. The reactions were quenched by the addition of DNA gel loading buffer containing 10% (w/v) SDS. The samples were separated on 1% (w/v) agarose gels and DNA was visualized using EtBr. All natural products stock solutions and dilutions were prepared in 100% DMSO and added to the supercoiling reactions giving a final DMSO concentration of 2% (v/v).

[5] = test system: Citrobacter freundii DSM-30039; assay: MIC microdilution, C. freundii DSM-30039; type: cell-based
Description: as §1, §2

[6] = test system: E. coli WT-3 [gyrA(S83L, D87G)]; assay: MIC microdilution, E. coli WT-3 [gyrA(S83L, D87G)]; type: cell-based, Escherichia coli
Description: as §1, §2

[7] = test system: CHO-K1 (Chinese hamster ovary cell line); assay: Cytotoxicity (MTT), CHO-K1 cell line; type: cell-based; details: 5 d incubation
Description: CHO-K1 cells were obtained from the DSMZ and were cultured under conditions recommended by the depositor. Cells were seeded at 6×10^3 cells/well of 96-well plates in 180 μl complete medium and treated with compounds in serial dilution after 2 h of equilibration. Each sample was tested in duplicate as well as the internal DMSO control. After 5 d incubation, 20 μl of 5 mg/ml MTT (thiazolyl blue tetrazolium bromide) in PBS was added per well and it was further incubated for 2 h at 37° C. The medium was then discarded and cells were washed with 100 μl PBS before adding 100 μl 2-propanol/10 N HCl (250:1) in order to dissolve formazan granules. The absorbance at 570 nm was measured using a microplate reader (Tecan Infinite M200Pro), and cell viability was expressed as percentage relative to the respective […] control.

E. coli WT = assay: MIC microdilution, E. coli WT; type: cell-based, Escherichia coli
Description: as §1, §2

[8] = test system: E. coli DSM-26863 (tolC3); assay: MIC microdilution, E. coli DSM-26863 (tolC3); type: cell-based, Escherichia coli
Description: as §1, §2

E. coli DSM-1116 = assay: MIC microdilution, E. coli DSM-1116; type: cell-based, Escherichia coli
Description: as §1, §2

[9] = test system: Pseudomonas aeruginosa PA14; assay: MIC microdilution, P. aeruginosa PA14; type: cell-based; details: larger panel
Description: as §1, §2

[10] = test system: Pseudomonas aeruginosa ATCC27853; assay: MIC microdilution, P. aeruginosa ATCC27853; type: cell-based; details: larger panel
Description: as §1, §2

[11] = test system: Pseudomonas aeruginosa DSM-46316 (ESBL); assay: MIC microdilution, P. aeruginosa DSM-46316 (ESBL); type: cell-based; details: larger panel
Description: as §1, §2

[12] = test system: Staphylococcus epidermidis DSM-28765; assay: MIC microdilution, Staphylococcus epidermidis DSM-28765; type: cell-based; details: larger panel
Description: as §1, §2

[13] = test system: Enterobacter cloacae DSM-30054; assay: MIC microdilution, Enterobacter cloacae DSM-30054; type: cell-based; details: larger panel
Description: Dr. P. Heisig, Pharmaceutical Biology and Microbiology, University of Hamburg.
Overnight cultures were diluted in the appropriate growth medium to achieve an inoculum of 10^4-10^6 cfu/mL. […] Cystobactamides and reference drugs were added directly to the cultures in sterile 96-well plates as duplicates and serial dilutions were prepared. Microorganisms were grown on a microplate shaker (750 rpm, 30-37° C., 18-48 h), except S. pneumonia, which was grown at non-shaking conditions (37° C., 5% CO2, 18 h). Growth inhibition was assessed by visual inspection and the MIC was defined as the lowest concentration of compound that inhibited visible growth.

[14] = test system: Escherichia coli (TolC-deficient); assay: MIC microdilution, E. coli (TolC-deficient); type: cell-based; details: larger panel
Description: as §1
as §2, with “Cystobactamides and reference drugs were added directly to the cultures in sterile 96-well plates as duplicates and serial dilutions were prepared. Microorganisms were grown on a microplate shaker (750 rpm, 30-37° C., 18-48 h), except S. pneumonia, which was grown at non-shaking conditions (37° C., 5% CO2, 18 h).” left out

[15] = test system: Acinetobacter baumannii DSM-30008; assay: MIC microdilution, A. baumannii DSM-30008; type: cell-based
Description: as §1, §2

E. coli gyrase = target: T2, E. coli gyrase (Escherichia coli, UniProt P0AES4+P0AES6); assay: E. coli gyrase DNA supercoiling assay; type: biochemical; details: read-out: IC50 Ec gyrase (sc)
T2 construct: purchased Inspiralis, Norwich, UK
Description: as §3

[16] = test system: Pseudomonas aeruginosa DSM-24599; assay: MIC microdilution, P. aeruginosa DSM-24599; type: cell-based; details: larger panel
Description: as §1, §2

[17] = test system: Proteus vulgaris DSM-2140; assay: MIC microdilution, P. vulgaris DSM-2140; type: cell-based
Description: as §1, §2

## CO[C@@H](C(N)=O)[C@H](NC(=O)c1ccc(NC(=O)c2ccc([N+](=O)[O-])cc2)cc1)C(=O)Nc1ccc(C(=O)Nc2ccc(C(=O)Nc3ccc(C(=O)O)cc3)c(O)c2OC(C)C)cc1 [Cys 861-2]
[1]; Gram-negative set
  MIC P. aeruginosa DSM-24600 (ESBL): 1 µg/mL (≈ 1.16 µM)
[1]; larger panel
  MIC Pseudomonas aeruginosa DSM-24600 (ESBL): 1 µg/mL (≈ 1.16 µM)
E. coli Δtsx
  MIC E. coli Δtsx: 0.25 µg/mL (≈ 0.29 µM)
[2]
  MIC Serratia marcescens DSM-30121: 64 µg/mL (≈ 74.3 µM)
E. coli JW0401-1 (WT)
  MIC E. coli JW0401-1 (WT): 0.25 µg/mL (≈ 0.29 µM)
[3]
  MIC Enterococcus faecium DSM-20477: 0.5 µg/mL (≈ 0.58 µM)
CHO-K1 cell line
  genotoxic effect, micronucleus formation: No detectable genotoxic effect
[4]; Gram-negative set
  MIC E. coli WT-III [marRΔ74bp]: 0.5 µg/mL (≈ 0.58 µM)
[4]; larger panel
  MIC Escherichia coli WTIII (marRΔ74bp): 0.5 µg/mL (≈ 0.58 µM)
P. aeruginosa gyrase
  IC50: 0.18 µM
[5]; Gram-negative set
  MIC C. freundii DSM-30039: 0.06 µg/mL (≈ 0.0696 µM)
[5]; larger panel
  MIC Citrobacter freundii DSM-30039: 0.06 µg/mL (≈ 0.0696 µM)
[6]; Gram-negative set
  MIC E. coli WT-3 [gyrA(S83L, D87G)]: 0.5 µg/mL (≈ 0.58 µM)
[6]; larger panel
  MIC Escherichia coli WT-3 [gyrA(S83L, D87G)]: 0.5 µg/mL (≈ 0.58 µM)
[7]
  IC50: > 100 µM
E. coli WT; Gram-negative set
  MIC E. coli WT: 0.13 µg/mL (≈ 0.151 µM)
E. coli WT; larger panel
  MIC Escherichia coli WT: 0.125 µg/mL (≈ 0.145 µM)
[8]; Gram-negative set
  MIC E. coli DSM-26863 (tolC3): 0.06 µg/mL (≈ 0.0696 µM)
[8]; larger panel
  MIC Escherichia coli DSM-26863 (tolC3): 0.4 µg/mL (≈ 0.464 µM)
E. coli DSM-1116; Gram-negative set
  MIC E. coli DSM-1116: 0.13 µg/mL (≈ 0.151 µM)
E. coli DSM-1116; larger panel
  MIC Escherichia coli DSM-1116: 0.4 µg/mL (≈ 0.464 µM)
[9]
  MIC Pseudomonas aeruginosa PA14: 2 µg/mL (≈ 2.32 µM)
[10]
  MIC Pseudomonas aeruginosa ATCC27853: 4 µg/mL (≈ 4.64 µM)
[11]
  MIC Pseudomonas aeruginosa DSM-46316 (ESBL): 2 µg/mL (≈ 2.32 µM)
[12]
  MIC Staphylococcus epidermidis DSM-28765: 0.5 µg/mL (≈ 0.58 µM)
[13]
  MIC Enterobacter cloacae DSM-30054: 64 µg/mL (≈ 74.3 µM)
[14]
  MIC Escherichia coli (TolC-deficient): 0.06 µg/mL (≈ 0.0696 µM)
[15]; Gram-negative set
  MIC A. baumannii DSM-30008: 0.5 µg/mL (≈ 0.58 µM)
[15]; larger panel
  MIC Acinetobacter baumannii DSM-30008: 0.5 µg/mL (≈ 0.58 µM)
E. coli gyrase
  IC50: 0.28 µM
[16]
  MIC Pseudomonas aeruginosa DSM-24599: 2 µg/mL (≈ 2.32 µM)
[17]; Gram-negative set
  MIC P. vulgaris DSM-2140: 0.25 µg/mL (≈ 0.29 µM)
[17]; larger panel
  MIC Proteus vulgaris DSM-2140: 0.25 µg/mL (≈ 0.29 µM)
